Where two headings read alike, the source gives them in different places.
Columns and labels:
human CB1 receptor = target: T1, human CB1 receptor (Homo sapiens, UniProt P21554); assay: CB1 radioligand competitive binding assay ([3H]CP 55,940 displacement)
T1 construct: host or cells: CHO-K1 (Chinese hamster ovary) cells, stably transfected; membranes prepared in house

human CB2 receptor = target: T2, human CB2 receptor (Homo sapiens, UniProt P34972); assay: CB2 radioligand competitive binding assay ([3H]CP 55,940 displacement); details: for Selectivity CB2: fold difference between CB1 and CB2 binding, printed in column of receptor with higher affinity, 1.00 in both = same affinity
T2 construct: host or cells: CHO-K1 (Chinese hamster ovary) cells, stably transfected; membranes prepared in house
T2 sequence (P34972 whole entry): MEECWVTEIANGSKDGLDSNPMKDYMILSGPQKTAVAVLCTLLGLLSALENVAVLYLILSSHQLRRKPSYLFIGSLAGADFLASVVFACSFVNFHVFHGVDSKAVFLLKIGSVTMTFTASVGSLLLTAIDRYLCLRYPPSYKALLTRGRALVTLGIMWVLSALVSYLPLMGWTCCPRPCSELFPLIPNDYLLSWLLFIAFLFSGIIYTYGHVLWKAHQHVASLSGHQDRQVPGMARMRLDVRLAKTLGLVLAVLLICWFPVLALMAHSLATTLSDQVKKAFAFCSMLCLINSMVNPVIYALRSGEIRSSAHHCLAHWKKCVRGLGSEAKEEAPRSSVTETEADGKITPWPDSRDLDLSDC

[1] = [3H]CP 55,940 displacement, membranes of CHO-K1 cells expressing human CB1 receptor, read-out: CB1 IC50
[2] = [3H]CP 55,940 displacement, membranes of CHO-K1 cells expressing human CB2 receptor, read-out: CB2 IC50

T1 sequence (P21554 whole entry): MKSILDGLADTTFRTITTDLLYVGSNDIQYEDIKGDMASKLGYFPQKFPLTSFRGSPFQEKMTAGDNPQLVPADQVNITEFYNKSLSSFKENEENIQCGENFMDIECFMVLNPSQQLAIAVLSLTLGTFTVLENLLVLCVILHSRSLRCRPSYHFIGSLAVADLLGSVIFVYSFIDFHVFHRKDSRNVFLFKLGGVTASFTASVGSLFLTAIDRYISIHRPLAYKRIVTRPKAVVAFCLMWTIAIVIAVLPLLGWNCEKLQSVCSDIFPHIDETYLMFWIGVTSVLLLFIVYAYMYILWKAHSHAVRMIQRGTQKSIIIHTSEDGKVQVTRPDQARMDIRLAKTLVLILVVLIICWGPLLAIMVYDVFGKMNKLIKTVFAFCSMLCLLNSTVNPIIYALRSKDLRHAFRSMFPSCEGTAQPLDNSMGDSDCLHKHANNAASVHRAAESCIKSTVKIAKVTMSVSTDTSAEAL

Row | Structure (SMILES) | IC50 (human CB1 receptor; [1]) | IC50 (human CB2 receptor; [2]) | Selectivity CB2 (human CB2 receptor) | IC50 (human CB1 receptor) | Selectivity CB1 (human CB1 receptor; fold difference between CB1 and CB2 binding, printed in column of receptor with higher affinity, 1.00 in both = same affinity) | IC50 (human CB2 receptor)
1 | CCCCCc1cc(OCOC(=O)C(C)(C)C)c(-c2cccc(C)c2)c(OCOC(=O)C(C)(C)C)c1 [8′a, [3-(2,2-dimethylpropanoyloxymethoxy)-2-(m-tolyl)-5-pentyl-phenoxy]methyl 2,2-dimethylpropanoate] | 50 to 990 nM | 50 to 990 nM | 7.14 |  |  | 
2 | C=C(C)C1CCC(C)=CC1c1c(OCOC(=O)C(C)(C)C)cc(CCCCC)cc1OCOC(=O)C(C)(C)C (stereo not drawn) [8′d, ((5′-methyl-4-pentyl-2′-(prop-1-en-2-yl)-1′,2′,3′,4′-tetrahydro-[1,1′-biphenyl]-2,6-diyl)bis(oxy))bis(methylene) bis(2,2-dimethylpropanoate)] | 1000 to 9990 nM | 1000 to 9990 nM | 2.00 |  |  | 
3 | C=C(C)C1CCC(C)=CC1c1c(OCOCC)cc(C(C)(C)CCCCCC)cc1OCOCC (stereo not drawn) [19′d, 2′,6′-bis(ethoxymethoxy)-5-methyl-4′-(2-methyloctan-2-yl)-2-(prop-1-en-2-yl)-1,2,3,4-tetrahydro-1,1′-biphenyl] | 1000 to 9990 nM | 1000 to 9990 nM | 2.00 |  |  | 
4 | CCCCCc1cc(O)c(C2C=C(C)CCC2)c(OCOC(=O)C(C)(C)C)c1 (stereo not drawn) [Compound 8c, ((6-hydroxy-5′-methyl-4-pentyl-1′,2′,3′,4′-tetrahydro-[1,1′-biphenyl]-2-yl)oxy)methyl pivalate] | 50 to 990 nM | < 50 nM | 8.85 |  |  | 
5 | C=C(C)C1CCC(C)=CC1c1c(OCOCCOC)cc(CCCCC)cc1OCOCCOC (stereo not drawn) [2′d, 2′,6′-bis((2-methoxyethoxy)methoxy)-5-methyl-4′-pentyl-2-(prop-1-en-2-yl)-1,2,3,4-tetrahydro-1,1′-biphenyl] | 1000 to 9990 nM | 50 to 990 nM | 2.50 |  |  | 
6 | CCCCCc1cc(O)c(C2C=C(C)CCC2)c(OCOCC)c1 (stereo not drawn) [Compound 17c, 6-(ethoxymethoxy)-5′-methyl-4-pentyl-1′,2′,3′,4′-tetrahydro-[1,1′-biphenyl]-2-ol] | 1000 to 9990 nM | 50 to 990 nM | 2.47 |  |  | 
7 | CCCCCc1cc(OCOCC)c(-c2cccc(C)c2)c(OCOCC)c1 [17′a, 2,6-bis(ethoxymethoxy)-3′-methyl-4-pentyl-1,1′-biphenyl] | 1000 to 9990 nM | 50 to 990 nM | 8.97 |  |  | 
8 | C=C(C)[C@@H]1CCC(C)=C[C@H]1c1c(O)cc(CCCCC)cc1OCN(C(=O)OC)c1ccccc1 [Compound 14d, methyl (((6-hydroxy-5′-methyl-4-pentyl-2′-(prop-1-en-2-yl)-1′,2′,3′,4′-tetrahydro-[1,1′-biphenyl]-2-yl)oxy)methyl)(phenyl)carbamate] |  |  |  | 50 to 990 nM | 2.53 | 50 to 990 nM
